Reference: ChEMBL document CHEMBL4138123, “Design, synthesis and biological evaluation of novel pyrazolochalcones as potential modulators of PI3K/Akt/mTOR pathway and inducers of apoptosis in breast cancer cells” (Eur J Med Chem, 2017)

Assays:
Type in all cases: functional
MDA-MB-468 [1] = test: Cytotoxicity against human MDA-MB-468 cells assessed as cell growth at 1 uM after 48 hrs by sulforhodamine B assay relative to control; details: MDA-MB-468, 48 h, read-out: Activity
SK-OV-3 = test: Cytotoxicity against human SKOV3 cells assessed as cell growth at 0.1 uM after 48 hrs by sulforhodamine B assay relative to control; details: SK-OV-3, 48 h, read-out: Activity
HOP-62 = test: Cytotoxicity against human HOP62 cells assessed as cell growth at 0.1 uM after 48 hrs by sulforhodamine B assay relative to control; details: HOP-62, 48 h, read-out: Activity
NCI-H322M = test: Cytotoxicity against human NCI-H322M cells assessed as cell growth at 1 uM after 48 hrs by sulforhodamine B assay relative to control; details: read-out: Activity
MDA-MB-231 [2] = test: Cytotoxicity against human MDA-MB-231 cells assessed as growth inhibition after 48 hrs by sulforhodamine B assay; details: MDA-MB-231, 48 h
HCT-15 = test: Cytotoxicity against human HCT15 cells assessed as cell growth at 100 uM after 48 hrs by sulforhodamine B assay relative to control; details: HCT-15, 48 h, read-out: Activity
RPMI-8226 [3] = test: Cytotoxicity against human RPMI8226 cells assessed as cell growth at 0.1 uM after 48 hrs by sulforhodamine B assay relative to control; details: RPMI-8226, 48 h, read-out: Activity
CCRF-CEM = test: Cytotoxicity against human CCRF-CEM cells assessed as cell growth at 0.01 uM after 48 hrs by sulforhodamine B assay relative to control; details: read-out: Activity
MDA-MB-468 [4] = test: Cytotoxicity against human MDA-MB-468 cells assessed as cell growth at 0.01 uM after 48 hrs by sulforhodamine B assay relative to control; details: MDA-MB-468, 48 h, read-out: Activity
SF-539 [5] = test: Cytotoxicity against human SF539 cells assessed as cell growth at 0.01 uM after 48 hrs by sulforhodamine B assay relative to control; details: SF-539, 48 h, read-out: Activity
RPMI-8226 [6] = test: Cytotoxicity against human RPMI8226 cells assessed as cell growth at 0.01 uM after 48 hrs by sulforhodamine B assay relative to control; details: RPMI-8226, 48 h, read-out: Activity
OVCAR-3 = test: Cytotoxicity against human OVCAR3 cells assessed as cell growth at 10 uM after 48 hrs by sulforhodamine B assay relative to control; details: OVCAR-3, 48 h, read-out: Activity
TK-10 = test: Cytotoxicity against human TK10 cells assessed as cell growth at 100 uM after 48 hrs by sulforhodamine B assay relative to control; details: TK-10, 48 h, read-out: Activity
SK-MEL-5 [7] = test: Cytotoxicity against human SK-MEL-5 cells assessed as cell growth at 0.01 uM after 48 hrs by sulforhodamine B assay relative to control; details: SK-MEL-5, 48 h, read-out: Activity
NCI-H226 = test: Cytotoxicity against human NCI-H226 cells assessed as cell growth at 10 uM after 48 hrs by sulforhodamine B assay relative to control; details: NCI-H226, 48 h, read-out: Activity
MDA-MB-231 [8] = test: Cytotoxicity against human MDA-MB-231 cells assessed as cell growth at 0.01 uM after 48 hrs by sulforhodamine B assay relative to control; details: MDA-MB-231, 48 h, read-out: Activity
UACC-62 [9] = test: Cytotoxicity against human UACC62 cells assessed as cell growth at 100 uM after 48 hrs by sulforhodamine B assay relative to control; details: UACC-62, 48 h, read-out: Activity
U-251 = test: Cytotoxicity against human U251 cells assessed as cell growth at 0.01 uM after 48 hrs by sulforhodamine B assay relative to control; details: U-251, 48 h, read-out: Activity
SR = test: Cytotoxicity against human SR cells assessed as cell growth at 1 uM after 48 hrs by sulforhodamine B assay relative to control; details: read-out: Activity
COLO 205 = test: Cytotoxicity against human COLO205 cells assessed as cell growth at 1 uM after 48 hrs by sulforhodamine B assay relative to control; details: COLO 205, 48 h, read-out: Activity
MOLT-4 = test: Cytotoxicity against human MOLT4 cells assessed as cell growth at 1 uM after 48 hrs by sulforhodamine B assay relative to control; details: MOLT-4, 48 h, read-out: Activity
UACC-257 = test: Cytotoxicity against human UACC257 cells assessed as cell growth at 1 uM after 48 hrs by sulforhodamine B assay relative to control; details: UACC-257, 48 h, read-out: Activity
NCI-H23 = test: Cytotoxicity against human NCI-H23 cells assessed as cell growth at 1 uM after 48 hrs by sulforhodamine B assay relative to control; details: NCI-H23, 48 h, read-out: Activity
A549 = test: Cytotoxicity against human A549/ATCC cells assessed as growth inhibition after 48 hrs by sulforhodamine B assay; details: A549, 48 h
MCF7 = test: Cytotoxicity against human MCF7 cells assessed as cell growth at 10 uM after 48 hrs by sulforhodamine B assay relative to control; details: MCF7, 48 h, read-out: Activity
HCC 2998 = test: Cytotoxicity against human HCC2998 cells assessed as cell growth at 0.1 uM after 48 hrs by sulforhodamine B assay relative to control; details: HCC 2998, 48 h, read-out: Activity
SF-539 [10] = test: Cytotoxicity against human SF539 cells assessed as cell growth at 10 uM after 48 hrs by sulforhodamine B assay relative to control; details: SF-539, 48 h, read-out: Activity
SF-539 [11] = test: Cytotoxicity against human SF539 cells assessed as cell growth at 100 uM after 48 hrs by sulforhodamine B assay relative to control; details: SF-539, 48 h, read-out: Activity
UACC-62 [12] = test: Cytotoxicity against human UACC62 cells assessed as cell growth at 0.1 uM after 48 hrs by sulforhodamine B assay relative to control; details: UACC-62, 48 h, read-out: Activity
SF-268 = test: Cytotoxicity against human SF268 cells assessed as cell growth at 0.1 uM after 48 hrs by sulforhodamine B assay relative to control; details: SF-268, 48 h, read-out: Activity
SK-MEL-5 [13] = test: Cytotoxicity against human SK-MEL-5 cells assessed as cell growth at 100 uM after 48 hrs by sulforhodamine B assay relative to control; details: SK-MEL-5, 48 h, read-out: Activity
RXF 393 = test: Cytotoxicity against human RXF393 cells assessed as cell growth at 0.01 uM after 48 hrs by sulforhodamine B assay relative to control; details: RXF 393, 48 h, read-out: Activity
MDA-MB-231 [14] = test: Cytotoxicity against human MDA-MB-231 cells assessed as cell growth at 1 uM after 48 hrs by sulforhodamine B assay relative to control; details: MDA-MB-231, 48 h, read-out: Activity
IGROV-1 = test: Cytotoxicity against human IGROV1 cells assessed as cell growth at 1 uM after 48 hrs by sulforhodamine B assay relative to control; details: IGROV-1, 48 h, read-out: Activity

SMILES | growth at 1 µM (MDA-MB-468 [1]) [%] | growth at 0.1 µM (SK-OV-3) [%] | growth at 0.1 µM (HOP-62) [%] | growth at 1 µM (NCI-H322M) [%] | LC50 (MDA-MB-231 [2]) [µM] | TGI (MDA-MB-231 [2]) [µM] | growth at 0.1 µM (RPMI-8226 [3]) [%] | growth at 0.01 µM (CCRF-CEM) [%] | growth at 0.01 µM (MDA-MB-468 [4]) [%] | growth at 0.01 µM (SF-539 [5]) [%] | growth at 0.01 µM (RPMI-8226 [6]) [%] | growth at 10 µM (OVCAR-3) [%] | growth at 100 µM (TK-10) [%] | growth at 0.01 µM (SK-MEL-5 [7]) [%] | growth at 10 µM (NCI-H226) [%] | growth at 0.01 µM (MDA-MB-231 [8]) [%] | growth at 100 µM (UACC-62 [9]) [%] | growth at 0.01 µM (U-251) [%] | growth at 1 µM (SR) [%] | growth at 1 µM (COLO 205) [%] | further results
COc1cc(-c2cc(/C=C/C(=O)c3ccc(F)c(F)c3)[nH]n2)cc(OC)c1OC | 79 | 99 | 101 | 86 | > 100 | 4.58 | 90 | 99 | 90 | 100 | 94 | -24 | -37 | 98 | 16 | 94 | -81 | 97 | 84 | 92 | growth at 100 µM (HCT-15): 2%; growth at 1 µM (MOLT-4): 91%; growth at 1 µM (UACC-257): 72%; growth at 1 µM (NCI-H23): 90%; LC50 (concentration giving 50% net cell kill) (A549): > 100 µM; TGI (A549): 9.9 µM; growth at 10 µM (MCF7): 2%; growth at 0.1 µM (HCC 2998): 92%; growth at 10 µM (SF-539 [10]): 21%; growth at 100 µM (SF-539 [11]): -63%; growth at 0.1 µM (UACC-62 [12]): 93%; growth at 0.1 µM (SF-268): 94%; growth at 100 µM (SK-MEL-5 [13]): -88%; growth at 0.01 µM (RXF 393): 94%; growth at 1 µM (MDA-MB-231 [14]): 74%; growth at 1 µM (IGROV-1): 95%
COc1cc(-c2cc(/C=C/C(=O)c3ccc(Cl)c(Cl)c3)[nH]n2)cc(OC)c1OC | 76 | 104 | 101 | 94 | > 100 | > 100 | 95 | 98 | 94 | 93 | 100 | 40 | -27 | 98 | 67 | 103 | 14 | 97 | 23 | 54 | growth at 1 µM (MOLT-4): 97%; growth at 1 µM (UACC-257): 90%; growth at 1 µM (NCI-H23): 95%; LC50 (concentration giving 50% net cell kill) (A549): > 100 µM; TGI (A549): > 100 µM; growth at 10 µM (MCF7): 15%; growth at 0.1 µM (HCC 2998): 97%; growth at 10 µM (SF-539 [10]): 28%; growth at 100 µM (SF-539 [11]): -74%; growth at 0.1 µM (UACC-62 [12]): 94%; growth at 0.1 µM (SF-268): 92%; growth at 100 µM (SK-MEL-5 [13]): -30%; growth at 0.01 µM (RXF 393): 96%; growth at 1 µM (MDA-MB-231 [14]): 89%; growth at 1 µM (IGROV-1): 99%
COc1ccc(-c2cc(/C=C/C(=O)c3ccc4c(c3)OCO4)[nH]n2)cc1OC | – | – | – | – | – | – | – | – | – | – | – | – | – | – | – | – | – | – | – | – | GI50 (MDA-MB-231 [2]): 1.88 µM; GI50 (A549): 2.25 µM
